Source: patent US20200085050A1, “Acyclic Picolinamides as a Seed Treatment” (priority 2017, published 2020)
Read-outs that look alike come from different tables or passages of the source.

Legend:
Cochliobolus sativus = experiment: Seed treatment, spot blotch of barley (COCHSA) foliar disease control; assay type: in vivo
Parastagonospora nodorum = experiment: Seed treatment, wheat glume blotch (LEPTNO) foliar disease control; assay type: in vivo
Erysiphe cichoracearum = experiment: Seed treatment, cucumber powdery mildew (ERYSCI) foliar disease control; assay type: in vivo
Pyricularia oryzae = assay type: in vivo; settings: for PYRIOR rating of foliar disease control: rice
[1] = test system: Blumeria graminis f. sp. hordei; experiment: Seed treatment, barley powdery mildew (ERYSGH) foliar disease control; assay type: in vivo
[2] = in vivo
From the text: The treated seeds were planted in pots containing soil-less Metro mix within 2 weeks after treatment, and resultant seedling plants were inoculated with respective pathogens as described below. Four pots of the seedlings were inoculated for each treatment rate.

Phakopsora pachyrhizi = experiment: Seed treatment, soybean rust (PHAKPA) foliar disease control; assay type: in vivo; settings: at any rate, data not shown
[3] = test system: Pseudoperonospora cubensis; experiment: Seed treatment, cucumber downy mildew (PSEUCU) foliar disease control; assay type: in vivo
Rhizoctonia solani = experiment: Seed treatment, rice sheath blight (RHIZSO) foliar disease control; assay type: in vivo
Puccinia triticina = experiment: Seed treatment, wheat brown rust (PUCCRT) foliar disease control; assay type: in vivo
[4] = test system: Colletotrichum lagenarium; experiment: Seed treatment, cucumber anthracnose (COLLLA) foliar disease control; assay type: in vivo
Zymoseptoria tritici = experiment: Seed treatment, wheat leaf blotch (SEPTTR) foliar disease control; assay type: in vivo
Rhynchosporium secalis = experiment: Seed treatment, barley scald (RHYNSE) foliar disease control; assay type: in vivo
[5] = test system: Blumeria graminis f. sp. tritici; experiment: Seed treatment, wheat powdery mildew (ERYSGT) foliar disease control; assay type: in vivo
[6] = seed treatment 3.7 g ai/100 kg seeds
[7] = seed treatment 11 g ai/100 kg seeds
[8] = seed treatment 33.3 g ai/100 kg seeds
[9] = seed treatment 100 g ai/100 kg seeds
[10] = seed treatment 300 g ai/100 kg seeds
[11] = seed treatment, summary of Table 3
[12] = seed treatment, summary of Table 2
[13] = seed treatment, summary of Table 4
[14] = seed treatment, summary of Table 5

In the case of `COc1ccnc(C(=O)N[C@@H](C)C(=O)O[C@@H](C)C(c2ccc(F)cc2)c2ccc(F)cc2)c1OC(C)=O` [I, (S)-1,1-bis(4-fluorophenyl)propan-2-yl (3-acetoxy-4-methoxypicolinoyl)-L-alaninate], the “COCHSA rating of foliar disease control” value (Cochliobolus sativus; [6]) is reported as “D (0-25)”, the “COCHSA rating of foliar disease control” value (Cochliobolus sativus; [7]) is reported as “D (0-25)” and the “COCHSA rating of foliar disease control” value (Cochliobolus sativus; [8]) is reported as “D (0-25)”. For the same compound, the “COCHSA rating of foliar disease control” value (Cochliobolus sativus; [9]) was “D (0-25)”, the “COCHSA rating of foliar disease control” value (Cochliobolus sativus; [10]) was “D (0-25)” and the “activity on spot blotch (COCHSA), in words” value (Cochliobolus sativus; [11]) was “little activity”. For the same compound, the “LEPTNO rating of foliar disease control” value (Parastagonospora nodorum; [6]) was “A (76-100)”, the “LEPTNO rating of foliar disease control” value (Parastagonospora nodorum; [7]) was “A (76-100)” and the “LEPTNO rating of foliar disease control” value (Parastagonospora nodorum; [8]) was “A (76-100)”. The “LEPTNO rating of foliar disease control” value (Parastagonospora nodorum; [9]) was “A (76-100)”, the “LEPTNO rating of foliar disease control” value (Parastagonospora nodorum; [10]) was “A (76-100)” and the “protection against glume blotch (LEPTNO), in words” value (Parastagonospora nodorum; [12]) was “excellent protection”. For the same compound, the “ERYSCI rating of foliar disease control” value (Erysiphe cichoracearum; [6]) was “D (0-25)”, the “ERYSCI rating of foliar disease control” value (Erysiphe cichoracearum; [7]) was “D (0-25)” and the “ERYSCI rating of foliar disease control” value (Erysiphe cichoracearum; [8]) was “D (0-25)”. The “ERYSCI rating of foliar disease control” value (Erysiphe cichoracearum; [9]) was “B (51-75)”, the “ERYSCI rating of foliar disease control” value (Erysiphe cichoracearum; [10]) was “A (76-100)” and the “activity on powdery mildew (ERYSCI), in words” value (Erysiphe cichoracearum; [13]) was “moderate activity”. The “PYRIOR rating of foliar disease control” value (Pyricularia oryzae; [6]) was “B (51-75)”, the “PYRIOR rating of foliar disease control” value (Pyricularia oryzae; [7]) was “B (51-75)” and the “PYRIOR rating of foliar disease control” value (Pyricularia oryzae; [8]) was “A (76-100)”. For the same compound, the “PYRIOR rating of foliar disease control” value (Pyricularia oryzae; [9]) was “A (76-100)”, the “PYRIOR rating of foliar disease control” value (Pyricularia oryzae; [10]) was “A (76-100)” and the “activity on rice blast (PYRIOR), in words” value (Pyricularia oryzae; [14]) was “strong activity”. The “ERYSGH rating of foliar disease control” value [1, 6] was “D (0-25)”, the “ERYSGH rating of foliar disease control” value [1, 7] was “A (76-100)” and the “ERYSGH rating of foliar disease control” value [1, 8] was “A (76-100)”. For the same compound, the “ERYSGH rating of foliar disease control” value [1, 9] was “A (76-100)”, the “ERYSGH rating of foliar disease control” value [1, 10] was “A (76-100)” and the “activity on powdery mildew (ERYSGH), in words” value [1, 11] was “excellent activity”. The stunting or phytotoxicity [2] was “no evidence of stunting or phytotoxicity”, the “activity on Asian soybean rust (PHAKPA), in words” value (Phakopsora pachyrhizi) was “no activity” and the “PSEUCU rating of foliar disease control” value [3, 6] was “D (0-25)”. For the same compound, the “PSEUCU rating of foliar disease control” value [3, 7] was “D (0-25)”, the “PSEUCU rating of foliar disease control” value [3, 8] was “D (0-25)” and the “PSEUCU rating of foliar disease control” value [3, 9] was “D (0-25)”. For the same compound, the “PSEUCU rating of foliar disease control” value [3, 10] was “D (0-25)”, the “activity on downy mildew (PSEUCU), in words” value [3, 13] was “little activity” and the “RHIZSO rating of foliar disease control” value (Rhizoctonia solani; [6]) was “D (0-25)”. For the same compound, the “RHIZSO rating of foliar disease control” value (Rhizoctonia solani; [7]) was “D (0-25)”, the “RHIZSO rating of foliar disease control” value (Rhizoctonia solani; [8]) was “D (0-25)” and the “RHIZSO rating of foliar disease control” value (Rhizoctonia solani; [9]) was “D (0-25)”. The “RHIZSO rating of foliar disease control” value (Rhizoctonia solani; [10]) was “D (0-25)”, the “activity on rice sheath blight (RHIZSO), in words” value (Rhizoctonia solani; [14]) was “little activity” and the “PUCCRT rating of foliar disease control” value (Puccinia triticina; [6]) was “D (0-25)”. The “PUCCRT rating of foliar disease control” value (Puccinia triticina; [7]) was “D (0-25)”, the “PUCCRT rating of foliar disease control” value (Puccinia triticina; [8]) was “D (0-25)” and the “PUCCRT rating of foliar disease control” value (Puccinia triticina; [9]) was “C (26-50)”. The “PUCCRT rating of foliar disease control” value (Puccinia triticina; [10]) was “A (76-100)”, the “activity against brown rust (PUCCRT), in words” value (Puccinia triticina; [12]) was “moderate activity” and the “COLLLA rating of foliar disease control” value [4, 6] was “D (0-25)”. For the same compound, the “COLLLA rating of foliar disease control” value [4, 7] was “B (51-75)”, the “COLLLA rating of foliar disease control” value [4, 8] was “B (51-75)” and the “COLLLA rating of foliar disease control” value [4, 9] was “A (76-100)”. For the same compound, the “COLLLA rating of foliar disease control” value [4, 10] was “A (76-100)”, the “activity on anthracnose (COLLLA), in words” value [4, 13] was “strong activity” and the “SEPTTR rating of foliar disease control” value (Zymoseptoria tritici; [6]) was “A (76-100)”. For the same compound, the “SEPTTR rating of foliar disease control” value (Zymoseptoria tritici; [7]) was “A (76-100)”, the “SEPTTR rating of foliar disease control” value (Zymoseptoria tritici; [8]) was “A (76-100)” and the “SEPTTR rating of foliar disease control” value (Zymoseptoria tritici; [9]) was “A (76-100)”. The “SEPTTR rating of foliar disease control” value (Zymoseptoria tritici; [10]) was “A (76-100)”, the “protection against leaf blotch (SEPTTR), in words” value (Zymoseptoria tritici; [12]) was “excellent protection” and the “RHYNSE rating of foliar disease control” value (Rhynchosporium secalis; [6]) was “D (0-25)”. The “RHYNSE rating of foliar disease control” value (Rhynchosporium secalis; [7]) was “D (0-25)”, the “RHYNSE rating of foliar disease control” value (Rhynchosporium secalis; [8]) was “C (26-50)” and the “RHYNSE rating of foliar disease control” value (Rhynchosporium secalis; [9]) was “B (51-75)”. For the same compound, the “RHYNSE rating of foliar disease control” value (Rhynchosporium secalis; [10]) was “A (76-100)”, the “activity on barley scald (RHYNSE), in words” value (Rhynchosporium secalis; [11]) was “moderate activity” and the “ERYSGT rating of foliar disease control” value [5, 6] was “D (0-25)”. The “ERYSGT rating of foliar disease control” value [5, 7] was “D (0-25)”, the “ERYSGT rating of foliar disease control” value [5, 8] was “B (51-75)” and the “ERYSGT rating of foliar disease control” value [5, 9] was “A (76-100)”. The “ERYSGT rating of foliar disease control” value [5, 10] was “A (76-100)” and the “activity against powdery mildew (ERYSGT), in words” value [5, 12] was “moderate activity”.
